Source: patent US5945436A, “Pyridylmethyl nitriles, amides and thioamides useful as fungicides” (Uniroyal Chemical Company, Inc., priority 1997, dated 1999)

How the values were obtained:
Erysiphe graminis [1] = assay: Powdery mildew of barley, systemic root uptake (BMS); format: in vivo; details: 45 ml of 250 mg/l, 8 days after inoculation
Description: Compositions containing Compounds Nos. 1-81 were prepared by dissolving 0.24 grams of each of the compounds in 8 ml of acetone or other suitable inert solvent. Each of the resultant solutions was treated with 3 drops of TWEEN 20 (ethoxylated ethylene sorbitan monolaurate, a non-ionic surfactant)(I.C.I.), and water was added to form an emulsion. The degree of dilution with water was dictated by the desired concentration of the compound in the composition. The greater the quantity of water added, the lower the concentration of the compound in the composition, reported in milligrams per liter (mg/l) […] Upon reaching these ages, the plants were either treated with 45 ml of 250 mg/l concentration of the compositions of Example 9 or were left untreated. The untreated plants were used as controls. The 45 ml compositions saturated the soil of the treated pots without significant loss through drainage into the saucers below the pots. Twenty-four hours after the treatment with the compositions, both the barley and cucumber plants in all the pots, those treated and those untreated, were inoculated with powdery mildew fungus. This was accomplished by tapping leaves of previously infected barley and cucumber plants over the treated and untreated pots containing the barley and cucumber plants, respectively, to distribute spores of the fungus over the plants tested. […] Intermediate ratings were assigned depending on the degree of disease. […] The results of the powdery mildew disease control of barley are reported under the heading of "BMS". The results for cucumber mildew control are reported under the heading "CMS".

Uromyces phaseoli = assay: Bean rust fungus eradicant test (URO PHA); format: in vivo; details: pinto bean, eradicant spray 2 days after inoculation, 1,000 mg/l; for pest or weed control at 1000 µg/mL: Uromyces phaseoli, 216 h, read-out: Percent Reduction of Disease, URO PHA
Description: Compositions containing Compounds Nos. 1-81 were prepared by dissolving 0.24 grams of each of the compounds in 8 ml of acetone or other suitable inert solvent. Each of the resultant solutions was treated with 3 drops of TWEEN 20 (ethoxylated ethylene sorbitan monolaurate, a non-ionic surfactant)(I.C.I.), and water was added to form an emulsion. The degree of dilution with water was dictated by the desired concentration of the compound in the composition. The greater the quantity of water added, the lower the concentration of the compound in the composition, reported in milligrams per liter (mg/l) A plurality of pots were each planted with two pinto bean plants, Phaseolus vulgaris, each, susceptible to rust disease. When the plants were 7 days old, at the primary leaf stage of growth, they were all sprayed with a suspension containing 20,000 spores of the bean rust fungus, Uromyces phaseoli, per ml. All the pots were then incubated in a controlled environmental chamber, maintained at 99% humidity and 21° C., for 24 hours to allow infection to occur. The plants were then removed from the incubator and allowed to dry. Two days after inoculation each of the infected plants was then either sprayed with one of the compositions of Example 9, at a dosage of 1,000 mg/l, or left unsprayed. The unsprayed plants acted as controls. All of the sprayed and unsprayed plants were then placed in a greenhouse at 21° C. for nine days to allow the disease to develop. […] Control of disease was determined by comparing treated plants with the untreated controls. The results, expressed as percent reduction of disease, are summarized in Table II under the heading "URO PHA".

Erysiphe graminis [2] = assay: Powdery mildew in barley, foliar application (ERY GRA); format: in vivo; details: foliar, 1,000 mg/l, 8 days after inoculation; for pest or weed control at 1000 µg/mL: Blumeria graminis, foliar, 192 h, read-out: Percent Reduction of Disease, ERY GRA
Description: Compositions containing Compounds Nos. 1-81 were prepared by dissolving 0.24 grams of each of the compounds in 8 ml of acetone or other suitable inert solvent. Each of the resultant solutions was treated with 3 drops of TWEEN 20 (ethoxylated ethylene sorbitan monolaurate, a non-ionic surfactant)(I.C.I.), and water was added to form an emulsion. The degree of dilution with water was dictated by the desired concentration of the compound in the composition. The greater the quantity of water added, the lower the concentration of the compound in the composition, reported in milligrams per liter (mg/l) Ten plants of "Robust" variety barley were planted in each of a plurality of pots. Each pot was then either sprayed with one of the compositions of Example 9, at a composition concentration of 1,000 mg/l, or left unsprayed. For each pot sprayed, one pot was left unsprayed as a control. After the leaves of the sprayed pots were dried, the sprayed pots and the unsprayed control pots were placed in a greenhouse maintained at 21° C. All the pots were then inoculated with barley powdery mildew fungus, Erysiphe graminis. This inoculation was accomplished by distributing spores of the fungus over the leaves of the plants to be tested from plants which had previously been infected with the mildew disease. […] Again, percent control was computed by comparing the treatment scores with the scores of the untreated controls. The results are summarized in Table II under the heading "ERY GRA".

Septoria nodorum = assay: Fungal growth inhibition, treated disc on agar (SEP NOD); format: cell-based; details: disc dipped in 500 mg/l, 29° C.; for inhibition at 500 µg/mL: Parastagonospora nodorum, read-out: Percent Growth Inhibition, SEP NOD
Description: (§1) Filter paper discs, each 11 mm. in diameter, were dipped in each of the test solutions. The discs were allowed to air dry to drive off the acetone solvent. A number of untreated discs were used as controls.
(§2) The treated and untreated discs were then placed on agar plates and one of the following fungus species: Septoria nodorum (SEP NOD), Botrytis cinerea (BOT CIN), Fusarium oxysporum (FUS OXY), Pythium ultimum (PYT ULT), Rhizoctonia solani (RHI SOL), Colletotrichum gossypii (COL GOS), and Scierotinia minor (SCL MIN), was added to the center of each disc in the form of a culture plug with the fungus mat in contact with the paper of the test disc. Cercosporidium personatum (CER PER), was added to discs as a spore suspension (20,000 spores/ml) to the disc (two drops of spore suspension per disc), rather than a mycelial culture plug. The plates were then incubated at 29° C. in an oven.
(§3) With the exception of the discs containing Cercosporidium personatum, the discs were evaluated by first measuring the radius from the center of the fungus colony on the treated discs and on the untreated discs. Percent growth inhibition of each of the compounds tested was determined as a function of the difference between the radius of the fungus colony on the treated disc versus the radius of the fungus colony on the untreated disc.

Rhizoctonia solani = assay: Fungal growth inhibition, treated disc on agar (RHI SOL); format: cell-based; details: disc dipped in 500 mg/l, 29° C.; for inhibition at 500 µg/mL: Rhizoctonia solani, read-out: Percent Growth Inhibition, RHI SOL
Description: as §1, §2, §3

Botrytis cinerea = assay: Fungal growth inhibition, treated disc on agar (BOT CIN); format: cell-based; details: disc dipped in 500 mg/l, 29° C.; for inhibition at 500 µg/mL: Botrytis cinerea, read-out: Percent Growth Inhibition, BOT CIN
Description: as §1, §2, §3

Fusarium oxysporum = assay: Fungal growth inhibition, treated disc on agar (FUS OXY); format: cell-based; details: disc dipped in 500 mg/l, 29° C.; for inhibition at 500 µg/mL: Fusarium oxysporum, read-out: Percent Growth Inhibition, FUS OXY

| Compound | Percent Reduction of Disease, BMS (Erysiphe graminis [1]) | pest or weed control at 1000 µg/mL (Uromyces phaseoli) | pest or weed control at 1000 µg/mL (Erysiphe graminis [2]) | inhibition at 500 µg/mL (Septoria nodorum) | inhibition at 500 µg/mL (Rhizoctonia solani) | inhibition at 500 µg/mL (Botrytis cinerea) | inhibition at 500 µg/mL (Fusarium oxysporum) | Percent Reduction of Disease, URO PHA (Uromyces phaseoli) | Percent Reduction of Disease, ERY GRA (Erysiphe graminis [2]) | Percent Growth Inhibition, SEP NOD (Septoria nodorum) | Percent Growth Inhibition, RHI SOL (Rhizoctonia solani) | Percent Growth Inhibition, BOT CIN (Botrytis cinerea) | Percent Growth Inhibition, FUS OXY (Fusarium oxysporum) |
| --- | --- | --- | --- | --- | --- | --- | --- | --- | --- | --- | --- | --- | --- |
| CCCCCCC(C#N)(Cc1ccc(C(C)(C)C)cc1)c1cccnc1 (centres unmarked) [Compound 16] | 0% | 0% | 85% | 45% | 25% | 20% | 5% |  |  |  |  |  |  |
| C#CCC(C#N)(CCc1ccc(OC)cc1)c1cccnc1 (centres unmarked) [Compound 38] | 0% | 0% | 83% | 100% | 0% | 100% | 100% |  |  |  |  |  |  |
| CCCCCCCC(C#N)(CCc1ccccc1)c1cccnc1 (centres unmarked) [Compound 2] | 0% | 97% | 100% | 0% | 0% | 60% | 30% |  |  |  |  |  |  |
| COCC(C#N)(CCc1ccc(F)cc1)c1cccnc1 (centres unmarked) [Compound 51] | 90% | 20% | 91% | 100% | 30% | 100% | 100% |  |  |  |  |  |  |
| C=CCC(C#N)(CCc1ccc(OCC)cc1)c1cccnc1 (centres unmarked) [Compound 40] | 0% | 17% | 67% | 100% | 0% | 100% | 100% |  |  |  |  |  |  |
| CCCC(C#N)(CCc1ccc(OCC)cc1)c1cccnc1 (centres unmarked) [Compound 46] | 0% | 33% | 92% | 100% | 8% | 100% | 100% |  |  |  |  |  |  |
| CCCC(C#N)(CCc1ccccc1)c1cccnc1 (centres unmarked) [Compound 1] | 60% | 60% | 100% | 0% | 95% | 5% | 97% |  |  |  |  |  |  |
| CCCCC(C#N)(CCc1ccccc1)c1ccncc1 (centres unmarked) [Compound 26] | 0% | 0% | 50% | 45% | 4% | 5% | 59% |  |  |  |  |  |  |
| CCCC(C#N)(CCc1ccccc1C(F)(F)F)c1cccnc1 (centres unmarked) [Compound 72] | 90% | 0% | 100% | 100% | 38% | 100% | 16% |  |  |  |  |  |  |
| CCCC(C#N)(Cc1ccc(Oc2ccccc2)cc1)c1cccnc1 (centres unmarked) [Compound 17] | 0% | 0% | 70% | 55% | 45% | 5% | 60% |  |  |  |  |  |  |
| N#CC(CCCc1ccc(Cl)cc1)(CC1CC1)c1ccccn1 (centres unmarked) [Compound 32] | 0% |  |  |  |  |  |  | 85% | 100% | 89% | 0% | 96% | 100% |
| C=CCC(C#N)(CCc1ccc(OCCCC)cc1)c1cccnc1 (centres unmarked) [Compound 56] | 0% | 0% | 90% | 40% | 45% | 100% | 60% |  |  |  |  |  |  |
| CCCCOc1ccc(CCC(C#N)(CCC)c2cccnc2)cc1 (centres unmarked) [Compound 57] | 0% | 0% | 90% | 40% | 40% | 30% | 55% |  |  |  |  |  |  |
| CC(C)CCC(C#N)(CCc1ccc(F)cc1)c1cccnc1 (centres unmarked) [Compound 55] | 75% |  |  |  |  |  |  | 0% | 100% | 10% | 50% | 40% | 65% |
| Cc1ccc(CCC(C#N)(CCC(F)(F)F)c2cccnc2)cc1 (centres unmarked) [Compound 80] | 100% | 83% | 100% | 0% | 62% | 9% | 24% |  |  |  |  |  |  |
| CCCCC(C#N)(CCc1ccccc1C(F)(F)F)c1cccnc1 (centres unmarked) [Compound 73] | 100% | 100% | 100% | 70% | 34% | 100% | 75% |  |  |  |  |  |  |
| CCCCCC(C#N)(CCc1ccc(F)cc1)c1cccnc1 (centres unmarked) [Compound 60] | 75% | 50% | 100% | 100% | 100% | 100% | 20% |  |  |  |  |  |  |
| CCCCC(C#N)(CCCc1ccccc1OC)c1cccnc1 (centres unmarked) [Compound 63] | 0% | 0% | 0% | 100% | 5% | 40% | 20% |  |  |  |  |  |  |
| CCCCC(C#N)(CCc1ccccc1F)c1cccnc1 (centres unmarked) [Compound 74] | 100% | 92% | 100% | 100% | 100% | 100% | 3% |  |  |  |  |  |  |
| N#CC(CCc1ccccc1)(CCc1ccccc1)c1cccnc1 [A, reference compound] | 15% | 0% | 0% | 0% | 10% | 0% | 10% |  |  |  |  |  |  |
